Holding throughout (format): binding
The target of one assay is T1, human A1AR (hA1AR) (Homo sapiens, UniProt P30542).
T1 construct: expressed in transfected cells; host or cells: CHO cells (CHOhA1AR), gift of Prof; S.J. Hill, University of Nottingham; membrane fractions
T1 sequence (P30542 1-326): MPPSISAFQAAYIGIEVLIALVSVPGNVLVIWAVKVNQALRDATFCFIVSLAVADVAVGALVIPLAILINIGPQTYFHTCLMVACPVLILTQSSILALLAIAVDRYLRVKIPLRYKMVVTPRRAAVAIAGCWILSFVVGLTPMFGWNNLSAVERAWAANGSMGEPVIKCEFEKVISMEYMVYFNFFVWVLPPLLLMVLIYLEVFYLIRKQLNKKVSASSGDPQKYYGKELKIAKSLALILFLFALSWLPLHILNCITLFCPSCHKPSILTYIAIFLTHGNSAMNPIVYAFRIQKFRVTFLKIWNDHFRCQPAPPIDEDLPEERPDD
Kind of assay: Single-point radioligand displacement, [3H]DPCPX. Conditions: 1 μM probe; CHO cell membranes; co-incubated with radioligand 30 min at 25 °C; mean of two experiments. As for the experimental part: (§1) Membrane aliquots containing 15 μg (CHOhA3AR), 5 μg (CHOhA1AR), or 30 μg (HEK293hA2AAR and CHO-spap-A2BAR) of protein were resuspended in assay buffer (A3AR: 50 mM Tris–HCl, pH 8.0, 10 mM MgCl2, 1 mM EDTA, 0.01% CHAPS; A1AR and A2AAR: 50 mM Tris–HCl, pH 7.4; A2BAR: 50 mM Tris–HCl, pH 7.4, 0.1% CHAPS). […] Nonspecific binding was determined in the presence of 100 μM NECA (A3AR), 100 μM CPA (A1AR), 100 μM NECA (A2AAR), and 10 μM ZM241385 (A2BAR). Incubations were terminated by rapid vacuum filtration to separate the bound and free radioligand through prewetted 96-well GF/C filter plates using a PerkinElmer Filtermate harvester. Filters were subsequently washed 12 times with ice-cold wash buffer (A3AR: 50 mM Tris–HCl, pH 8.0, 10 mM MgCl2, 1 mM EDTA; A1AR and A2AAR: 50 mM Tris–HCl, pH 7.4; A2BAR: 50 mM Tris–HCl, pH 7.4, 0.1% BSA). The plates were dried at 55 °C, and MicroscintTM-20 cocktail (PerkinElmer) was added subsequently.
(§2) Single point displacement values shown are mean percentages of two individual experiments performed in duplicate. All pKi values shown are mean values ± SEM of three individual experiments performed in duplicate.
(In a radioligand displacement assay an active substance lowers the binding of a labelled ligand.)

The target in the next assay is T2, human A2AAR (hA2AAR) (Homo sapiens, UniProt P29274).
T2 construct: expressed in transfected cells; host or cells: HEK293 cells (HEKhA2AAR), gift of Dr. J. Wang, Biogen; membrane fractions
T2 sequence (P29274 whole entry): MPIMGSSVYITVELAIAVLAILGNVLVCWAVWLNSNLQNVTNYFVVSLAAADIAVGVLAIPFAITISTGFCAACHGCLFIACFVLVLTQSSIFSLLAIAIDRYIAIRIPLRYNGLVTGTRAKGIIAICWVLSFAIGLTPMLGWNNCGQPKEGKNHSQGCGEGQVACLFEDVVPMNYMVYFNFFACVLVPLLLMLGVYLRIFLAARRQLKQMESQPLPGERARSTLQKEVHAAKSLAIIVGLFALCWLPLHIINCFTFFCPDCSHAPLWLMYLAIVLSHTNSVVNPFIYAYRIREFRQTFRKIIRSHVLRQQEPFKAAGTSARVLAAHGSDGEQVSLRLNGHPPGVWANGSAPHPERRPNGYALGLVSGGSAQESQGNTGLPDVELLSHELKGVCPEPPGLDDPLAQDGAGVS
As to the kind of experiment: Single-point radioligand displacement, [3H]ZM241385. Conditions: 1 μM probe; HEK293 cell membranes; co-incubated with radioligand 30 min at 25 °C; mean of two experiments. As for the experimental part:
as §1, §2

The target of the next assay is T3, human A2BAR (hA2BAR) (Homo sapiens, UniProt P29275).
T3 construct: expressed in transfected cells; host or cells: CHO-spap cells (CHO-spap-hA2BAR), gift of S.J. Dowell, GlaxoSmithKline; membrane fractions
T3 sequence (P29275 1-332): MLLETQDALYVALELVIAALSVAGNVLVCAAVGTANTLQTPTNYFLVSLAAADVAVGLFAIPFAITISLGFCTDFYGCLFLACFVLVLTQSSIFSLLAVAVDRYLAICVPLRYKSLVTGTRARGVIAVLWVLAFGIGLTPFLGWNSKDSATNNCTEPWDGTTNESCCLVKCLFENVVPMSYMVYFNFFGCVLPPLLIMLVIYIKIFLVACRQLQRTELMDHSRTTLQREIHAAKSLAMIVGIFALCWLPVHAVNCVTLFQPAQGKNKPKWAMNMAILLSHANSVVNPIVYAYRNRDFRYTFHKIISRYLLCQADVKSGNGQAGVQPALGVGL
As to the kind of experiment: Single-point radioligand displacement, [3H]PSB-603. The following applies: 1 μM probe; CHO-spap cell membranes; co-incubated with radioligand 30 min at 25 °C; mean of two experiments. As for the experimental part:
as §1, §2

Another assay addresses T4, hA3AR (Homo sapiens, UniProt P0DMS8).
T4 construct: expressed in transfected cells; host or cells: CHO cells (CHOhA3AR), gift of Prof; K.N. Klotz, University of Würzburg; used as membrane fractions or live cells
T4 sequence (P0DMS8 1-318): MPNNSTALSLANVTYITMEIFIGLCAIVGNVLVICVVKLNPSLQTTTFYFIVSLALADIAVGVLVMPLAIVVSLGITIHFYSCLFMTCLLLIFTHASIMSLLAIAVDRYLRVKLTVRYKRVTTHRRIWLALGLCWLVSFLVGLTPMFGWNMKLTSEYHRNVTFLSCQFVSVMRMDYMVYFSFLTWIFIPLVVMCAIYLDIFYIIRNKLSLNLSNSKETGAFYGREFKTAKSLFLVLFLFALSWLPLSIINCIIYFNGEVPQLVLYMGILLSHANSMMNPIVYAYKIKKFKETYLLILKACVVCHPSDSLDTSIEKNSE
As to the kind of experiment: Single-point radioligand displacement, [3H]PSB-11. The following applies: 1 μM probe; CHO cell membranes; co-incubated with radioligand 30 min at 25 °C; mean of two experiments. On the procedure: as §1, §2

In a further assay the target is T5, hA1AR (Homo sapiens, UniProt P30542).
T5 construct: expressed in transfected cells; host or cells: CHO cells (CHOhA1AR), gift of Prof; S.J. Hill, University of Nottingham; membrane fractions
T5 sequence (P30542 1-326): T1 sequence (P30542 1-326)
Kind of assay: Full curve displacement assays on the hA1AR. The following applies: from full curve displacement assays (Table S1). On the procedure: The affinity of the synthesized AfBPs was determined in radioligand binding experiments. First, single concentration displacement assays were carried out on all four human adenosine receptors, using a final probe concentration of 1 μM (Table 1). […] This quick screen indicated a good selectivity toward the hA3AR over the other human ARs, a trend that was also observed in the case of the parent compound.[34] Next, the ‘apparent’ affinities (depicted as pKi values) toward the hA3AR were determined using full curve displacement assays. To study the presumable covalent mode of action, the apparent affinity was determined with (pre-4 h) and without (pre-0 h) 4 h of pre-incubation of AfBP with hA3AR, prior to addition of radioligand. […] This difference in affinity was reflected in a shift in apparent pKi. […] To further investigate selectivity toward the hA3AR over the hA1AR, full curve displacement assays were carried out on the hA1AR.
[…]. Single point displacement values shown are mean percentages of two individual experiments performed in duplicate. All pKi values shown are mean values ± SEM of three individual experiments performed in duplicate. Statistical analysis was performed using a one-way ANOVA test with multiple comparisons (****p < 0.0001).

With `C#CCN(CCCn1c(=O)n(CCC)c(=O)c2c1nc1cc(OC)ccn12)C(=O)c1ccc(S(=O)(=O)F)cc1` [compound 5, 4-((3-(8-Methoxy-2,4-dioxo-3-propyl-3,4-dihydropyrido[2,1-f]purin-1(2H)-yl)propyl)(prop-2-yn-1-yl)carbamoyl)benzenesulfonyl fluoride], on human A1AR (hA1AR), the “% specific [3H]DPCPX displacement, hA1AR” value is reported as 2%. Moreover, the “% specific [3H]ZM241385 displacement, hA2AAR” value on human A2AAR (hA2AAR) turned out to be 0%. In addition, at human A2BAR (hA2BAR), the “% specific [3H]PSB-603 displacement, hA2BAR” value stood at 10%. Further, the “% specific [3H]PSB-11 displacement, hA3AR” value on hA3AR is 95%. Besides, the “selectivity toward the hA3AR over the hA1AR” value on hA1AR was above 100 fold.
In the same order, the values of `C#CCOc1ccn2c(c1)nc1c2c(=O)n(CCC)c(=O)n1CCCNC(=O)c1ccc(S(=O)(=O)F)cc1` [compound 9, 4-((3-(2,4-Dioxo-8-(prop-2-yn-1-yloxy)-3-propyl-3,4-dihydropyrido[2,1-f]purin-1(2H)-yl)propyl)carbamoyl)benzenesulfonyl fluoride] are 21%, 7%, 1%, 95% and above 17 fold.
